Measured values as given in PubChem BioAssay (NCI).
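Five concentrations, 48 hours, 96-well plates. Here, GI50 denotes the concentration required for 50% inhibition of growth. TGI: concentration producing complete growth inhibition.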

Key:
Assay in all cases: NCI-60 cell line screen, 48 h
786-0 renal = test system: 786-0 renal
A498 renal = test system: A498 renal
A549 NSCLC = test system: A549 NSCLC
ACHN renal = test system: ACHN renal
BT-549 breast = test system: BT-549 breast
CAKI-1 renal = test system: CAKI-1 renal
CCRF-CEM leukemia = test system: CCRF-CEM leukemia
COLO 205 colon = test system: COLO 205 colon
DU-145 prostate = test system: DU-145 prostate
EKVX NSCLC = test system: EKVX NSCLC
HCC-2998 colon = test system: HCC-2998 colon
HCT-116 colon = test system: HCT-116 colon
HCT-15 colon = test system: HCT-15 colon
HL-60(TB) leukemia = test system: HL-60(TB) leukemia
HOP-62 NSCLC = test system: HOP-62 NSCLC
HOP-92 NSCLC = test system: HOP-92 NSCLC
HS 578T breast = test system: HS 578T breast
HT29 colon = test system: HT29 colon
IGROV1 ovarian = test system: IGROV1 ovarian
K-562 leukemia = test system: K-562 leukemia
KM12 colon = test system: KM12 colon
LOX IMVI melanoma = test system: LOX IMVI melanoma
M14 melanoma = test system: M14 melanoma
MALME-3M melanoma = test system: MALME-3M melanoma
MCF7 breast = test system: MCF7 breast
MDA-MB-231 breast = test system: MDA-MB-231 breast
MDA-MB-435 = test system: MDA-MB-435
MOLT-4 leukemia = test system: MOLT-4 leukemia
NCI-H226 lung = test system: NCI-H226 lung
NCI-H23 lung = test system: NCI-H23 lung
NCI-H460 lung = test system: NCI-H460 lung
NCI-H522 lung = test system: NCI-H522 lung
NCI/ADR-RES ovarian = test system: NCI/ADR-RES ovarian
OVCAR-3 ovarian = test system: OVCAR-3 ovarian
OVCAR-4 ovarian = test system: OVCAR-4 ovarian
OVCAR-5 ovarian = test system: OVCAR-5 ovarian
OVCAR-8 ovarian = test system: OVCAR-8 ovarian
PC-3 prostate = test system: PC-3 prostate
RPMI-8226 leukemia = test system: RPMI-8226 leukemia
RXF 393 renal = test system: RXF 393 renal
SF-268 CNS = test system: SF-268 CNS
SF-295 CNS = test system: SF-295 CNS
SF-539 CNS = test system: SF-539 CNS
SK-MEL-2 melanoma = test system: SK-MEL-2 melanoma
SK-MEL-28 melanoma = test system: SK-MEL-28 melanoma
SK-MEL-5 melanoma = test system: SK-MEL-5 melanoma
SK-OV-3 ovarian = test system: SK-OV-3 ovarian
SN12C renal = test system: SN12C renal
SNB-19 CNS = test system: SNB-19 CNS
SNB-75 CNS = test system: SNB-75 CNS
SR leukemia = test system: SR leukemia
SW-620 colon = test system: SW-620 colon
T-47D breast = test system: T-47D breast
TK-10 renal = test system: TK-10 renal
U251 CNS = test system: U251 CNS
UACC-257 melanoma = test system: UACC-257 melanoma
UACC-62 melanoma = test system: UACC-62 melanoma
UO-31 renal = test system: UO-31 renal

`O=C(c1cccs1)c1c(C(F)(F)F)n([O-])c2ccc(Cl)cc2[n+]1=O` showed a GI50 (786-0 renal) of 36.2 nM, a TGI (786-0 renal) of 69 nM and a GI50 (A498 renal) of 10800 nM. It also gave a TGI (A498 renal) of 18500 nM, a GI50 (A549 NSCLC) of 168 nM and a TGI (A549 NSCLC) of 730 nM. For the same compound, the GI50 (ACHN renal) was 16.7 nM, the TGI (ACHN renal) was 44.2 nM and the GI50 (BT-549 breast) was 289 nM. For the same compound, the TGI (BT-549 breast) was 655 nM, the GI50 (CAKI-1 renal) was 128 nM and the TGI (CAKI-1 renal) was 671 nM. It also gave a GI50 (CCRF-CEM leukemia) of 93.3 nM, a GI50 (COLO 205 colon) of 569 nM and a TGI (COLO 205 colon) of 10200 nM. The GI50 (DU-145 prostate) was 311 nM, the TGI (DU-145 prostate) was 547 nM and the GI50 (EKVX NSCLC) was 185 nM. It also gave a TGI (EKVX NSCLC) of 523 nM, a GI50 (HCC-2998 colon) of 735 nM and a TGI (HCC-2998 colon) of 1430 nM. For the same compound, the GI50 (HCT-116 colon) was 46.5 nM, the TGI (HCT-116 colon) was 723 nM and the GI50 (HCT-15 colon) was 109 nM. For the same compound, the TGI (HCT-15 colon) was 359 nM, the GI50 (HL-60(TB) leukemia) was 152 nM and the TGI (HL-60(TB) leukemia) was 1510 nM. The GI50 (HOP-62 NSCLC) was 64.9 nM, the TGI (HOP-62 NSCLC) was 146 nM and the GI50 (HOP-92 NSCLC) was 866 nM. For the same compound, the TGI (HOP-92 NSCLC) was 5680 nM, the GI50 (HS 578T breast) was 11400 nM and the TGI (HS 578T breast) was > 34000 nM. For the same compound, the GI50 (HT29 colon) was 1290 nM, the TGI (HT29 colon) was > 50000 nM and the GI50 (IGROV1 ovarian) was 56.3 nM. It also gave a TGI (IGROV1 ovarian) of 1650 nM, a GI50 (K-562 leukemia) of 115 nM and a TGI (K-562 leukemia) of 2620 nM. For the same compound, the GI50 (KM12 colon) was 111 nM, the TGI (KM12 colon) was 302 nM and the GI50 (LOX IMVI melanoma) was 65.3 nM. For the same compound, the TGI (LOX IMVI melanoma) was 131 nM, the GI50 (M14 melanoma) was 322 nM and the TGI (M14 melanoma) was 1090 nM. The GI50 (MALME-3M melanoma) was 6360 nM, the TGI (MALME-3M melanoma) was 13900 nM and the GI50 (MCF7 breast) was 94.2 nM. For the same compound, the TGI (MCF7 breast) was 2480 nM, the GI50 (MDA-MB-231 breast) was 124 nM and the TGI (MDA-MB-231 breast) was 431 nM. The GI50 (MDA-MB-435) was 289 nM, the TGI (MDA-MB-435) was 2020 nM and the GI50 (MOLT-4 leukemia) was 28.9 nM. The TGI (MOLT-4 leukemia) was 340 nM, the GI50 (NCI-H226 lung) was 398 nM and the TGI (NCI-H226 lung) was 2360 nM. For the same compound, the GI50 (NCI-H23 lung) was 454 nM, the TGI (NCI-H23 lung) was 2260 nM and the GI50 (NCI-H460 lung) was 359 nM. The TGI (NCI-H460 lung) was > 24900 nM, the GI50 (NCI-H522 lung) was 406 nM and the TGI (NCI-H522 lung) was 6070 nM. For the same compound, the GI50 (NCI/ADR-RES ovarian) was 1750 nM, the TGI (NCI/ADR-RES ovarian) was 6240 nM and the GI50 (OVCAR-3 ovarian) was 461 nM. The TGI (OVCAR-3 ovarian) was 2850 nM, the GI50 (OVCAR-4 ovarian) was 2610 nM and the TGI (OVCAR-4 ovarian) was > 50000 nM. For the same compound, the GI50 (OVCAR-5 ovarian) was 2020 nM, the TGI (OVCAR-5 ovarian) was 9680 nM and the GI50 (OVCAR-8 ovarian) was 1260 nM. For the same compound, the TGI (OVCAR-8 ovarian) was > 20900 nM, the GI50 (PC-3 prostate) was 97.2 nM and the TGI (PC-3 prostate) was 339 nM. For the same compound, the GI50 (RPMI-8226 leukemia) was 5 nM, the TGI (RPMI-8226 leukemia) was 16.3 nM and the GI50 (RXF 393 renal) was 2090 nM. It also gave a TGI (RXF 393 renal) of 11700 nM, a GI50 (SF-268 CNS) of 434 nM and a TGI (SF-268 CNS) of 1360 nM. It also gave a GI50 (SF-295 CNS) of 149 nM, a TGI (SF-295 CNS) of 703 nM and a GI50 (SF-539 CNS) of 282 nM. The TGI (SF-539 CNS) was 568 nM, the GI50 (SK-MEL-2 melanoma) was 912 nM and the TGI (SK-MEL-2 melanoma) was > 20800 nM. The GI50 (SK-MEL-28 melanoma) was 9460 nM, the TGI (SK-MEL-28 melanoma) was > 50000 nM and the GI50 (SK-MEL-5 melanoma) was 541 nM. The TGI (SK-MEL-5 melanoma) was 2540 nM, the GI50 (SK-OV-3 ovarian) was 7810 nM and the TGI (SK-OV-3 ovarian) was 20100 nM. The GI50 (SN12C renal) was 175 nM, the TGI (SN12C renal) was 572 nM and the GI50 (SNB-19 CNS) was 1210 nM. The TGI (SNB-19 CNS) was > 14800 nM, the GI50 (SNB-75 CNS) was 2760 nM and the TGI (SNB-75 CNS) was > 50000 nM. For the same compound, the GI50 (SR leukemia) was 154 nM, the TGI (SR leukemia) was 621 nM and the GI50 (SW-620 colon) was 248 nM. For the same compound, the TGI (SW-620 colon) was 4680 nM, the GI50 (T-47D breast) was 505 nM and the GI50 (TK-10 renal) was 106 nM. For the same compound, the TGI (TK-10 renal) was 333 nM, the GI50 (U251 CNS) was 130 nM and the TGI (U251 CNS) was 586 nM. For the same compound, the GI50 (UACC-257 melanoma) was 614 nM, the TGI (UACC-257 melanoma) was 3360 nM and the GI50 (UACC-62 melanoma) was 212 nM. For the same compound, the TGI (UACC-62 melanoma) was 562 nM, the GI50 (UO-31 renal) was 185 nM and the TGI (UO-31 renal) was 745 nM.
